The record followed here is patent US12577232B2, “N-heterocycle substituted tryptamine derivatives and methods of using” (ENVERIC B[…] INC., priority 2024, dated 2026).

Experiment [1] concerns human model (NT2) neurons. Briefly: Neuroplastogenicity (neurite outgrowth) assay in NT2 neurons. The format is cell-based. Also on record: key: a positive (+) designation indicating strong evidence of enhanced neurite outgrowth in drug-treated NT2 cells compared to vehicle-treated cells; a negative (−) designation indicating weak or no evidence of enhanced neurite outgrowth in drug-treated NT2 cells compared to vehicle-treated cells. Particulars: 1 or 10 μM, 48 h, visual inspection vs vehicle (0.1% DMSO). The source says:
Classic psychedelics such as psilocybin and DMT show potential to treat anxiety and depression, and it has been theorized that such long-term improvements arise because these drugs rapidly and lastingly stimulate neuroplasticity (Calder and Hasler, 2023, Neuropsychopharmacol. 48:104-112). Thus, it was of interest to determine the potential of new compounds as neuroplastogens. Herein, we assess the capacity of various compounds to enhance neurite outgrowth in human model (NT2) neurons.
Human NT2/D1 precursor cells were purchased from the American Type Culture Collection (ATCC, Manassas, VA, USA). Neuronal differentiation was carried out as previously described (Roloff et al., 2015, PloS ONE 10:e0118536) with minor modifications. Firstly, NT2/D1 cells were seeded in T-25 suspension culture flasks (REF #690190, Greiner bio-one, Germany). Each flask contains a minimum of 5×10^6 cells in 10 ml of DMEM/F12 supplemented with 10% fetal bovine serum (FBS), 1% penicillin and streptomycin and 10 μM retinoic acid (RA) medium to start neuronal differentiation. The cells were cultured for 3 days in free floating medium. At the end of the incubation cells were trypsinized and collected by centrifugation, mechanically dispersed, and counted. Counted cells were seeded along Poly D-Lysine (PDL) coated cover slips (12 mm; diameter round, Fisher Scientific; GG-12-PDL) containing a minimum of 0.1×10^5 cells in culture medium without RA. The next day culture medium was replaced with RA medium containing 2% of FBS. These cells cultured for 5 days and two days later, RA medium was changed.
After cells had successfully attached and established along coverslips, the RA medium was replaced with new medium containing 2% FBS and one of the following: (1) test compound (1 or 10 μM), (2) RhoK (ROCK) inhibitor Y-27632 (1 μM) as a positive control (Dihydrochloride; Sigma-Aldrich) (Roloff et al., 2015, PloS ONE 10:e0118536); (3) DMT (1 or 10 μM) as a positive control (Calder and Hasler, 2023, Neuropsychopharmacol. 48:104-112), or (4) vehicle (0.1% DMSO) as a negative control. These cells were incubated for 48 hours under standard conditions (370C, 5% CO2). The cells cultured along coverslips were collected after 48 hours of treatment. The coverslips washed with calcium chloride and magnesium chloride-free phosphate buffered saline (PBS) pH 7.4 (Gibco, #70011-044) and fixed in paraformaldehyde (PFA) 4% in PBS (#J61899, thermoscientific) for 15 min at room temperature (RT) and washed three times with 0.01% of Triton-X100 in PBS (PBST) to remove remaining PFA and to permeabilize the cells. Non-specific binding sites were blocked with 5% of Bovine Serum Albumin (BSA) solution (#9048-46-8, Millipore) in PBST for 60 minutes at RT. Rabbit monoclonal antibody β-III-tubulin (1:5,000, ab52623, Abcam) was applied overnight (O/N) at 4° C. Next day cells are washed three times in PBST, neurons were incubated with secondary antibody Donkey anti-rabbit IgG(H+L) Alexa Fluor™ Plus488 (1:5000 #A32790, Invitrogen) for 1 hour at RT. These coverslips were mounted on Gluoromount-G™, with 4′6-diamidino-2′henylindoldihydrochloride (DAPI) (#E141818, Invitrogen). The immunofluorescence images were analyzed using an Olympus VS110 slide scanner microscope.
B-III-Tubulin immunofluorescence was quantified using ImageJ. Briefly, Corrected Total Cell Fluorescence (CTCF) was acquired for at least ˜8-10 representative cells, where CTCF=Integrated Density−[Area of selected cell*Mean Fluorescence of background]. The CTCF values, referred to herein as ‘signal intensities’, were used to calculate overall means±SD for each treatment. One-Way ANOVA was used to compare treatments. Further, the mean of each treatment was compared with the mean of the control treatment (RA-differentiated cells treated with vehicle, 0.1% DMSO) using Dunnett's multiple comparison procedure. […]

A further experiment concerns C57BL/6 mice. Briefly: Mouse Head Twitch Response (HTR) assay to assess hallucinogenic potential. The format is in vivo. Particulars: for mean HTR / HTR compared with the HTR response for 5-Br-DMT (one-way ANOVA, Dunnett): 3 mg/kg i.p.; for mean HTR: 0-15 min interval (preliminary screening); for HTR compared with the HTR response for 5-Br-DMT (one-way ANOVA, Dunnett): alpha 0.05; for HTR: 0-15 min (dose curve). On the procedure:
All experiments were approved by the University of Calgary Animal Care and Use Committee in accordance with Canadian Council on Animal Care guidelines. C57BL/6-Elite mixed sex mice were obtained from Charles River (8 weeks old). Until the first experiment, mice were group-housed, then single-housed on a 12:12 h light/dark schedule (lights on at 07:00 hours) with ad libitum access to food and water. Before any behavioral screening, mice were handled and exposed to the testing chamber for at least 5 min each day for three successive days and habituated to the experimental room 1 h before testing. The testing chamber was cleaned with a 70% ethanol solution between experiments to eliminate odor from other mice. Drug compounds (100 mM in DMSO) were diluted in sterile excipient (10% EtOH/15% PEG400 in ddH2O) to 3 mg/kg (preliminary screening) or 0.5, 2, 4, 7, and 10 mg/kg (dose-curve analysis) and administered using intraperitoneal (i.p.) drug injections. […] HTR was analyzed during the 0-to-15-minute window following drug administration. […] Mean HTR between 10 and 5 signifies reduced hallucinogenic potential relative to positive controls.

Experiment [2] addresses T1, human serotonin transporter (SERT) (Homo sapiens, UniProt P31645).
T1 construct: purchased PerkinElmer RBHSTM400UA
The experiment can be described thus: biochemical. The format is binding. Particulars: 1 nM imipramine; membranes containing human SERT; read-out: SERT, Ki. On the procedure:
A commonly applied SERT binding assay involves competition binding assays employing radiolabelled ligands. […] Radioactive binding assays were carried out using the Scintillation Proximity Assay (SPA). For saturation binding assay, mixtures of 9 μg of membrane containing human SERT was pre-coupled to 1 mg of SPA beads at room temperature in a tube rotator for 1 hour in binding buffer (50 mM Tris-HCl pH7.4, 120 mM NaCl, 5 mM KCl, 1 mM ascorbic acid, 10 μM pargyline HCl). […] After incubation, the samples are read on a MicroBeta 2 Microplate Counter. Non-specific binding was carried out in the presence of 200 μM of clomipramine hydrochloride (C7291-1G, Sigma). Equilibrium binding constant for imipramine (KD) was determined from saturation binding curve using one-site saturation binding analysis from GraphPad PRISM software (Version 9.2.0). All test compounds were dissolved to 100 mM in DMSO and dilutions were carried out in assay buffer. […] Ki values were calculated from the competition displacement data using the competitive binding analysis from GraphPad PRISM software. […] Vehicle (DMSO) without drug was used as a negative control.

T1 sequence (P31645 whole entry): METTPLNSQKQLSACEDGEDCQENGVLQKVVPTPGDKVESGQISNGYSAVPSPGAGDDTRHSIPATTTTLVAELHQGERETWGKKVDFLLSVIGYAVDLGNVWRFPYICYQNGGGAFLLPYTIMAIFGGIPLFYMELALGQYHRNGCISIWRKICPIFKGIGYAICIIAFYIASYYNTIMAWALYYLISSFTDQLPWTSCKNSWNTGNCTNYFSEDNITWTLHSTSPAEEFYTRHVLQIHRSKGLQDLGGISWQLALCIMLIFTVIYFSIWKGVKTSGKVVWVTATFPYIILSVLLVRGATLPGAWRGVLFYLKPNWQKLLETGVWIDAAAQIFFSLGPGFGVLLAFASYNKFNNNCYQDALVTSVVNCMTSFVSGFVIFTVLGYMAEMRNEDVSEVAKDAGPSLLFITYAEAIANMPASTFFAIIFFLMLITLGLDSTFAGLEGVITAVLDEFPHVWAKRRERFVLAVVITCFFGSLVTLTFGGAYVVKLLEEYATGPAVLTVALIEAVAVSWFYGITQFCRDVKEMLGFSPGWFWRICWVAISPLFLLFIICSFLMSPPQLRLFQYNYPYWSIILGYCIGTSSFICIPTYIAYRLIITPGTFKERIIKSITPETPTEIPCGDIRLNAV

The Ki is a dissociation constant, usually derived from enzyme kinetics or from competition with a known ligand. As to `CN(C)CCc1c[nH]c2cc(N3CCC3)ccc12` [Compound (XII)], the “Evidence of neurite outgrowth: Yes (+) or No (−)” value (“Evidence … (+) or No (−)” for short) in experiment [1] was “+”. Moreover, in the experiment with C57BL/6 mice, the “mean HTR” value is 6.25 and the “HTR compared with the HTR response for 5-Br-DMT (one-way ANOVA, Dunnett)” value (“HTR compared with the HTR response” below) was “not statistically significantly higher”. In the experiment with C57BL/6 mice (7 mg/kg i.p.), this molecule had an HTR of roughly 20. For the same molecule, the HTR in the experiment with C57BL/6 mice (10 mg/kg i.p. (maximum dose)) is roughly 12. The Ki in experiment [2] was determined as 1.68 µM.

Regarding `CN(C)CCc1c[nH]c2cc(F)cc(N3CCOCC3)c12` [Compound (XV)], the “Evidence … (+) or No (−)” value in experiment [1] is “+”. For the same molecule, in the experiment with C57BL/6 mice, the “mean HTR” value is on record as 5.0±0.82 and the “HTR compared with the HTR response” value is listed as “not statistically significantly higher”. The “HTR over increasing dosage” value with C57BL/6 mice (0.5-10 mg/kg i.p., 0-15 min) is on record as “remains low”. Also, the Ki in experiment [2] turned out to be 9.13 µM.

As for `CC(C)N(C)CCc1c[nH]c2cc(N3CCOCC3)c(F)cc12` [Compound (XVII)], the “Evidence … (+) or No (−)” value in experiment [1] is reported as “+”. Moreover, the “mean HTR” value in the experiment with C57BL/6 mice stood at 22.25. In the experiment with C57BL/6 mice (10 mg/kg i.p. (maximum dose)), this molecule gave an HTR of roughly 40.

Consider `CN(C)CCc1c[nH]c2cc(N3CCCC3)cc(F)c12` [Compound (XVIII)], for which, in experiment [1], the “Evidence … (+) or No (−)” value was “+”. For the same molecule, in the experiment with C57BL/6 mice, the “mean HTR” value amounted to 5.25 and the “HTR compared with the HTR response” value is “not statistically significantly higher”. Besides, the HTR in the experiment on C57BL/6 mice (10 mg/kg i.p. (maximum dose)) is given as greater than 20. In addition, in experiment [2], the inhibition constant (Ki) worked out at 39.2 µM.
